According to US20070020190A1, “Medicament comprising a highly potent long-lasting beta2-agonist in combination with other active ingredients” (priority 2003, published 2007):
Where a name gives a salt, the structure may show the parent alone.

Columns and labels:
asthmatic patients = assay: Preliminary clinical trial of bronchodilator efficacy (FEV1 by spirometry) in asthmatic patients; format: in vivo; conditions: single dose of 1 μg, inhalation
Experimental: The bronchodilator efficacy of TA 2005, defined as increase from baseline in the forced expiratory volume over one second (FEV1), measured by spirometry, has been assessed in a preliminary clinical trial in a small group of asthmatic patients.
The results have shown that already following administration of a single dose of 1 μg a mean and persistent increase of FEV1 approximately 30% greater than baseline can be obtained.

[1] = tested on: rat lung oedema induced by Sephadex; assay: Sephadex-induced lung oedema model; format: in vivo; conditions: intratracheal; for non effective dose on Sephadex-induced lung oedema: from dose-response curves
Experimental: The rat lung oedema induced by Sephadex is a model which leads to inflammatory cells infiltration and long-lasting interstitial oedema. […] The test substances were suspended in saline and administered intratracheally suitably diluted in the Sephadex suspension. 24 h post-administration, the animals were sacrificed and the lungs removed and weighted. Percent inhibition of the Sephadex-induced oedema was then determined.

[2] = tested on: isolated tracheal strips from ovalbumin-sensitised guinea pigs; assay: β2-desensitisation in isolated tracheal strips from ovalbumin-sensitised guinea pigs (carbachol-induced contraction); design: species or system guinea pig
Experimental: A prolonged use of β2-agonists results in down-regulation of pulmonary β2-adenoceptors. This phenomenon can be counteracted by concomitant treatment with a corticosteroid.
In the present study tracheal strips obtained from ovalbumin-sensitised guinea-pigs (100 mg/kg ip and 100 mg/kg sc, 20 days before sacrifice) were submitted to β2-desensitisation by contact for two 20-min periods with a supra-maximal concentration of salbutamol (5*10^−6 M). In some experiments guinea pigs 24 and 1.5 h before sacrifice received 50 mg/kg ip of budesonide.

[3] = tested on: isolated guinea pig tracheal strips; assay: Carbachol-induced contraction in isolated guinea pig tracheal strips
Description: The pharmacological interaction between the β2-adrenoceptor agonist TA 2005 and the M3-receptor antagonist tiotropium bromide was investigated in isolated guinea pig tracheal strips contracted with carbachol.

[4] = tested on: acetylcholine-induced bronchoconstriction in guinea-pigs; assay: Acetylcholine-induced bronchoconstriction in guinea pigs (Konzett and Rossler); format: in vivo, guinea pig; conditions: for ED50, acetylcholine-induced bronchoconstriction: acetylcholine 20 μg/kg iv, superfused onto tracheal mucosa
Experimental: Guinea pigs were prepared as originally described by Konzett and Rossler, Naunyn-Schmiedeberg's Arch Pharmacol, 1940; 195: 556-557.
Bronchoconstriction was induced by intravenous administration of acetylcholine (20 μg/kg). The antibronchospastic activity of different concentrations of tiotropium (0.1 to 30 pmol) or TA 2005 (0.3 to 100 pmol), alone or in combination, was investigated.

healthy male volunteers = conditions: single inhaled doses 0.8-12.8 μg, cited from earlier work
[5] = tested on: bronchoconstriction induced by acetaldehyde in the guinea pig; assay: Acetaldehyde-induced bronchoconstriction, histamine release and plasma extravasation in anaesthetized ventilated guinea pigs; format: in vivo
Experimental: Pharmacol., 362:184-189, 2000; as well as in a model of acetaldehyde induced bronchoconstriction (Berti et al., Arzneim-Forsch/Drug Res 1994; 44: 323-326).
The protective activity of TA 2005 (0.1 to 10 pmol), formoterol (0.3 to 30 pmol) or budesonide (31.25 to 500 nmol) was determined after intratracheal superfusion alone or in combination.

## COc1ccc(CC(C)NCC(O)c2ccc(O)c3[nH]c(=O)ccc23)cc1 [TA 2005, 8-Hydroxy-5-[(1R)-1-hydroxy-2-[[(1R)-2-(4-methoxyphenyl)-1-methylethyl]amino]ethyl-2(1H)-quinolinone hydrochloride salt]
Asthmatic patients
  mean and persistent increase of FEV1 greater than baseline: approximately 30%
[1]
  non effective dose on Sephadex-induced lung oedema: 0.01 nmol/kg
[2]; after β2-desensitisation with salbutamol 5*10^−6 M
  loss of potency in relaxing the carbachol-induced contraction: about 3 times
[2]; after β2-desensitisation, budesonide pretreatment 50 mg/kg ip 24 and 1.5 h before sacrifice
  potentiation of relaxing effects: about 6 times
[3]; Cavia porcellus, TA 2005 10^−12 M
  inhibition at 1 pM: 29.3 ± 6.1%
[4]; 3 pmol of TA 2005 in the absence of tiotropium
  inhibition of the effect of acetylcholine: 18%
[4]
  ED50, acetylcholine-induced bronchoconstriction: 16.7 pmol
Healthy male volunteers; metered dose nebuliser system
  maximum no adverse effect dose: 9.6 µg
Healthy male volunteers
  effect on heart rate, tremor, pulmonary function and plasma potassium: dose-dependent increase in heart rate, tremor and pulmonary function and a decrease in plasma potassium

## CCCC1O[C@@H]2C[C@H]3[C@@H]4CCC5=CC(=O)C=C[C@]5(C)[C@H]4[C@@H](O)C[C@]3(C)[C@]2(C(=O)CO)O1 (stereo partly shown) [budesonide]
[1]; budesonide alone (absence of TA 2005)
  dose of budesonide needed to significantly inhibit Sephadex-induced lung oedema: 240 nmol/kg
[1]; in the presence of TA 2005 (0.01 nmol/kg)
  dose of budesonide significantly inhibiting Sephadex-induced lung oedema: 15 nmol/kg
[1]; in the presence of formoterol (0.1 nmol/kg)
  dose of budesonide giving significant reduction in Sephadex-induced lung weight increase: 120 nmol/kg
[5]; budesonide alone, intratracheal superfusion
  ED50, bronchoconstriction: 396 nmol
[5]; combined with 0.1 pmol of TA 2005
  fold reduction of budesonide ED50, bronchoconstriction: 5.3 fold
[5]; combined with 0.3 pmol of TA 2005
  fold reduction of budesonide ED50, bronchoconstriction: 14.3 fold
[5]; combined with 0.3 pmol of formoterol
  fold reduction of budesonide ED50, bronchoconstriction: 3.0 fold
[5]; combined with 1 pmol of formoterol
  fold reduction of budesonide ED50, bronchoconstriction: 5.9 fold

## COc1ccc(CC(C)NCC(O)c2ccc(O)c(NC=O)c2)cc1 (stereo not shown) [formoterol]
[1]; 24 h post-administration, TA 2005 0.001-0.1, formoterol 0.01-2, budesonide 15-480 nmol/kg
  effect on Sephadex-induced lung oedema: dose-dependent remission
[1]
  non effective dose on Sephadex-induced lung oedema: 0.1 nmol/kg
[5]; 30 pmol, intratracheal superfusion
  decline of anti-bronchoconstrictive effect after 240 min: ~50%
[5]; intratracheal superfusion, TA 2005 0.1-10 pmol, formoterol 0.3-30 pmol, budesonide 31.25-500 nmol
  effect on AcCHO effects (bronchoconstriction, histamine release, plasma extravasation): potently antagonised

## C[N+]1(C)[C@@H]2C[C@@H](OC(=O)C(O)(c3cccs3)c3cccs3)C[C@H]1[C@@H]1O[C@@H]12 [tiotropium bromide]
[3]; tiotropium bromide 3*10^−10 M
  inhibition of carbachol-induced contraction: 17.1±2.2%
[4]; P<0.001
  potency relative to TA 2005: 5.2 fold
[4]
  ED50, acetylcholine-induced bronchoconstriction: 3.2 pmol
[4]; tiotropium 0.1-30 pmol, TA 2005 0.3-100 pmol, alone
  effect on acetylcholine-induced bronchoconstriction: dose-dependently antagonize
